In publication PMC8344022, “Small-molecule inhibitor of AF9/ENL-DOT1L/AF4/AFF4 interactions suppresses malignant gene expression and tumor growth” (Theranostics, 2021):
Like-named read-outs stand apart in the source and are kept apart here.

Assays:
Molm-13 cells [1] = assay: Flow cytometry for CD14 and CD11b (differentiation); format: cell-based, human; conditions: 5 μM for 5 days
Protocol: (§1) Compound 1 (5 μM for 5 days) induced significant differentiation, with more cell populations expressing CD14 and CD11b, two cell surface proteins for macrophages/monocytes (Figure 5B).
(§2) Flow cytometry. For Annexin V apoptosis assay, 10^5 cells/ml were incubated with increasing concentrations of a compound for 5 days. Apoptosis was determined using the FITC Annexin V Apoptosis Detection Kit I (BD Bioscience) using the manufacturer's protocol. For other FACS assays, cells were labeled with fluorochrome-conjugated monoclonal antibodies against human CD14 and CD11b (BD Biosciences) according to the manufacturer's recommendation. Cells were analyzed using a FACS Calibur (BD Biosciences/Applied Biosystems) and data were processed using the program Flowjo (version7.6.5).

p300 = p300 (Homo sapiens, UniProt Q09472); assay: p300 histone acetyltransferase inhibition; format: biochemical; conditions: at 100 µM (Figure S3: 30 or 100 µM)
Protocol: (§3) Inhibition of DOT1L, LSD1 and p300 was performed using our previously reported methods, [37], [38].
(§4) LSD1, and p300 histone acetyltransferase at 30 or 100 µM, using our previous reported methods [Ref. 36, 37,
(§5) (1 picture or pasted object on this page, not shown here)

LSD1 = LSD1 (Homo sapiens, UniProt O60341); assay: LSD1 enzyme inhibition; format: biochemical; conditions: at 100 µM (Figure S3: 30 or 100 µM)
Protocol: as §3, §4, §5

RPMI-8226 cells = assay: Antiproliferation assay (XTT); format: cell-based; conditions: Homo sapiens, 168 h, 7-day incubation, read-out: Cytotoxicity EC50
Summary of the method: (§6)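 EC50 values come from tetrazolium viability readouts and are averaged over at least three separate experiments. Blood cancer cells grown in suspension use XTT; solid tumor lines use MTT. Test compound incubation lasts 7 days, the reference compound 14 days.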

Jurkat cells = assay: Antiproliferation assay (XTT); format: cell-based; conditions: Homo sapiens, 168 h, 7-day incubation, read-out: Cytotoxicity EC50
Summary of the method: as §6

Molm-13 cells [2] = assay: Antiproliferation assay (XTT); format: cell-based
Summary of the method: as §6

HL60 cells = assay: Antiproliferation assay (XTT); format: cell-based; conditions: Homo sapiens, HL-60, 168 h, 7-day incubation, read-out: Cytotoxicity EC50
Summary of the method: as §6

MV4;11 cells = assay: Antiproliferation assay (XTT); format: cell-based; conditions: Homo sapiens, 168 h, 7-day incubation, read-out: Cytotoxicity EC50
Summary of the method: as §6

THP-1 cells = assay: Antiproliferation assay (XTT); format: cell-based; conditions: Homo sapiens, 168 h, 7-day incubation, read-out: Cytotoxicity EC50
Summary of the method: as §6

cancer cells = assay: Antiproliferation assays, cancer cell panel; format: cell-based
Protocol: The differential antiproliferation activities of compound 1 is consistent with its ability to suppress DOT1L/H3K79 methylation and SEC regulated gene expression, which are critical to MLL-r leukemia and Myc-driven blood cancer, but largely dispensable to other solid tumor cells.
Antiproliferation assay. Proliferation inhibition assays for suspension blood cancer cells were performed using an XTT assay kit (Roche). Proliferation inhibition assays for solid tumor cell lines MCF-7, MDA-MB-231, Panc1, Panc28 were performed using an MTT assay (Sigma). The antiproliferation EC50 values were determined using Prism 5 and the reported results were the mean values of at least three independent experiments. The incubation time for compound 1 was 7 days and that for EPZ4777 was 14 days.

[3] = test system: H3K79me2 at gene promoters in Molm-13 cells; assay: Chromatin immunoprecipitation (ChIP)-qPCR; format: cell-based
Protocol: Next, compound 1 was tested for its ability to change expression of characteristic MLL-r leukemia genes HoxA9, Meis1 and Myc. Myc is also overexpressed in a broad range of AML and other cancers. […] (Figure S5), presumably because SEC is not recruited there.
Chromatin immunoprecipitation. […] Cells were lysed with nuclear lysis buffer and sonicated to ~100-1000 bp fragments, which was incubated at 4 °C overnight with the H3K79me2 antibody (#5427, Cell signaling) and IgG (C15410206, Diagenode). Protein A/G Magnetic Beads (10 µL, Novus Biologicals) were added and incubated for 2 h. The beads were washed 3x with RIPA buffer and 2x with TE buffer. DNA on the beads was eluted for 2 hours at 68 °C in 100 μL of an elution buffer (20 mM Tris pH 7.5, 5 mM EDTA, 50 mM NaCl, 1% SDS, 50 μg/ml proteinase K) (2x), and purified using a ChIP DNA Clean & Concentrator kit (Novus Biologicals). qPCR was done using the method described above.

[4] = test system: nuclear protein levels in MV4;11 cells; assay: Western blot of nuclear proteins; format: cell-based
Protocol: Western blot. 3x10^6 cells/well were treated with increasing concentrations of a compound for 3 days and nuclear proteins extracted with the EpiQuik Nuclear Extraction Kit (Epigentek) according to the manufacturer's protocol. Equal amounts of proteins were separated on SDS-PAGE and transferred to PVDF membranes. The blots were probed with primary antibodies, followed by anti-rabbit or anti-mouse IgG (Thermo Scientific) secondary antibodies. The primary antibodies used in this research were MBP Mouse mAb (#2396, Cell signaling), DOT1L Rabbit mAb (#77087, Cell signaling), MLL-N Rabbit mAb (#14689, Cell signaling), ENL Rabbit mAb (#14893, Cell signaling), Di-Methyl-Histone H3K79 Rabbit mAb (#5427, Cell signaling), Mono-Methyl-Histone H3K79 Rabbit mAb (#9398, Cell signaling), Histone H3 Rabbit mAb (#4499, Cell signaling), AF4 Rabbit pAb (#NBP1-28705, Novusbio) and AFF4 Rabbit pAb (#ab103586, Abcam).

Molm-13 cells [5] = assay: Annexin V apoptosis assay (flow cytometry); format: cell-based
Protocol: as §1
as §2, with “For Annexin V apoptosis assay, 10^5 cells/ml were incubated with increasing concentrations of a compound for 5 days.” left out

Chain of p300 (Q09472 whole entry, species assumed): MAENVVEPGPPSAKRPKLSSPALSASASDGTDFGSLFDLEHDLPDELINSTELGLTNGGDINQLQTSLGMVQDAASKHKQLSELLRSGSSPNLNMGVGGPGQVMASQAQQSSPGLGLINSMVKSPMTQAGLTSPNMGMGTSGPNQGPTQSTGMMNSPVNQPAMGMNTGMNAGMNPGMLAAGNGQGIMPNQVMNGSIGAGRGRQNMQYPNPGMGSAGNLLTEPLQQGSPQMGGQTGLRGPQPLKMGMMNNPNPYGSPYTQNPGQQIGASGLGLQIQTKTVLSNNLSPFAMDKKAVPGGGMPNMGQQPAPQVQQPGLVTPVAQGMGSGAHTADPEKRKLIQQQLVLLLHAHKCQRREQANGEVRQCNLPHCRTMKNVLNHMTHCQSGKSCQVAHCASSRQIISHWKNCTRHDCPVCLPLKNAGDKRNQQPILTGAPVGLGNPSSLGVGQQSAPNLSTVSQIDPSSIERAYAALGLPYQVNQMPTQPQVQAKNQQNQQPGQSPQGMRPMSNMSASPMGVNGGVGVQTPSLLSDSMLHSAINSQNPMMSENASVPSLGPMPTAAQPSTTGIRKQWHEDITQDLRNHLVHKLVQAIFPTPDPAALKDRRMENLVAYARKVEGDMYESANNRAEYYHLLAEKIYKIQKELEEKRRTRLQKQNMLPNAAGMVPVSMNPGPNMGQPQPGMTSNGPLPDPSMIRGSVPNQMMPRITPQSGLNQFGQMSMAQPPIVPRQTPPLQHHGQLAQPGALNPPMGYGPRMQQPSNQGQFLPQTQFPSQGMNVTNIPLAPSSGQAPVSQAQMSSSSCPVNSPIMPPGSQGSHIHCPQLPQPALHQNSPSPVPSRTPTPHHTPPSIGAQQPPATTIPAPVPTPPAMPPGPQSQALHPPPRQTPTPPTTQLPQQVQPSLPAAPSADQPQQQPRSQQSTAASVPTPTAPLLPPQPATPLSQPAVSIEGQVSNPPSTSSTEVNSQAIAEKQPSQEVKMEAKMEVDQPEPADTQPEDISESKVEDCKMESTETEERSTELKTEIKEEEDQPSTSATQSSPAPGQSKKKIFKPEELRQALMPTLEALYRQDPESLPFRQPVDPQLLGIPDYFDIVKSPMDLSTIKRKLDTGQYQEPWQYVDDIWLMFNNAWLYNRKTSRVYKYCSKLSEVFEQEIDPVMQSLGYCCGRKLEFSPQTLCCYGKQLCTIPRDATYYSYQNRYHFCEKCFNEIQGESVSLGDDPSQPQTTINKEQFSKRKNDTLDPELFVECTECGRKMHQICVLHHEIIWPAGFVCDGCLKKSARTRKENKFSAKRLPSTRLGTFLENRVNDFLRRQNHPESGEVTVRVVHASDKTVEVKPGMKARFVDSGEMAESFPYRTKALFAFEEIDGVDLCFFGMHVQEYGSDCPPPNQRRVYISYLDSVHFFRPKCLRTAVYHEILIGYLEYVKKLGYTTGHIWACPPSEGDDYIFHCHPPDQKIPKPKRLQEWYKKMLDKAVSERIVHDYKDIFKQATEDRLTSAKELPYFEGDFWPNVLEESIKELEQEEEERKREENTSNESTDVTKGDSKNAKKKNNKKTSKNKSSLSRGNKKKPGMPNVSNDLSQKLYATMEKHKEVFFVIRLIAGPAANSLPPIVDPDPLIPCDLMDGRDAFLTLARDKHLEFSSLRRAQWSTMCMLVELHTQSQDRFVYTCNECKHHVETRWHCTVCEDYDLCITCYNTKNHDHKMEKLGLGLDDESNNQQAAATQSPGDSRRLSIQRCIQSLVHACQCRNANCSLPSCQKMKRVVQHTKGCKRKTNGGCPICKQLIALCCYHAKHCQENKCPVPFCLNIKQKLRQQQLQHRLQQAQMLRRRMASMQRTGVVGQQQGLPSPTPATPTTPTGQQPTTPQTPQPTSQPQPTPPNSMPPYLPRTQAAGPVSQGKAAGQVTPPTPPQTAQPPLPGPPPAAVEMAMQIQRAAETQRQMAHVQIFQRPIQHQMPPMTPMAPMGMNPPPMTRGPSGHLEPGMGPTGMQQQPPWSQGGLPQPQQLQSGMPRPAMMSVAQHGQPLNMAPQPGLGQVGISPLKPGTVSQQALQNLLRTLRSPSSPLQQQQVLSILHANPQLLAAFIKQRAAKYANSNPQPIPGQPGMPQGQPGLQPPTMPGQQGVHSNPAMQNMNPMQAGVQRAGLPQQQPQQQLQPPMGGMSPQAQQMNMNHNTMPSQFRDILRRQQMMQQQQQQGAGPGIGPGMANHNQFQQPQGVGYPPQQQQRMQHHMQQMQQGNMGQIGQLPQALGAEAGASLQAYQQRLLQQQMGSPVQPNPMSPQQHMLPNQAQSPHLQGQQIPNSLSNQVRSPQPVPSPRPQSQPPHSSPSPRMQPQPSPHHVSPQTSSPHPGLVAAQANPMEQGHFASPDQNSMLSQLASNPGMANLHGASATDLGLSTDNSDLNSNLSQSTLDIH

For `CC(C)(C)c1ccc(-n2cc(C(=O)NC3CCNCC3)nc2-c2ccccc2)cc1` [Compound 1], the “Differentiation: cells expressing CD14 and CD11b” value (Molm-13 cells [1]) was “significantly more cells expressing high levels of CD14 and CD11b”, the “Inhibition of p300 histone acetyltransferase activity” value (p300) was “did not significantly inhibit” and the “Inhibition of LSD1 enzyme activity” value (LSD1) was “did not significantly inhibit”. For the same molecule, the EC50 (RPMI-8226 cells) was 3.3 ± 0.1 µM, the EC50 (Jurkat cells) was 9.7 ± 0.3 µM and the “Inhibition of cell proliferation” value (Molm-13 cells [2]; 10 μM, Day-2 or 3) was “did not significantly inhibit”. For the same molecule, the inhibition at 10 µM (Molm-13 cells [2]; Homo sapiens, 10 μM, Day-5, read-out: Inhibition of cell proliferation) was greater than 90%, the EC50 (Molm-13 cells [2]; Homo sapiens, 168 h, 7-day incubation, read-out: Cytotoxicity EC50) was 4.9 ± 0.1 µM and the EC50 (HL60 cells) was 7.3 ± 0.1 µM. The EC50 (MV4;11 cells) was 4.7 ± 0.4 µM, the EC50 (THP-1 cells) was 11.4 ± 0.6 µM and the EC50 (cancer cells; 168 h, MLL-r leukemia (MV4;11, Molm-13, THP-1) and Myc-driven blood cancer cells, 7 days, read-out: EC50 against proliferation (range)) was 3 to 11 µM. The “Antiproliferative activity against solid tumor cells” value (cancer cells; MCF-7, MDA-MB-231 and two pancreatic cancer cells) was “reduced activity”, the EC50 (cancer cells; MLL-r leukemia cells Molm-13, MV4;11 and THP-1, read-out: EC50s against proliferation (range)) was 4.7 to 11 µM and the EC50 (cancer cells; Myc-driven blood cancer cells HL60, Kasumi-1, Jurkat, RPMI8226, U266, read-out: EC50s against proliferation (range)) was 3.3 to 9.7 µM. For the same molecule, the “H3K79-Me2 in a non-transcribed DNA region” value [3] was “did not significantly reduce H3K79-Me2”, the “H3K79me2 in the gene promoters of HoxA9 and Myc” value ([3]; 5 μM for 4 days) was “decreased levels of H3K79me2” and the “Nuclear level of AFF4” value ([4]; 10 μM) was “did not cause significantly decreased AFF4”. For the same molecule, the “Nuclear protein levels of H3K79me1 and me2 and ENL” value ([4]; 3 days) was “reduced the nuclear protein levels of H3K79me1 and me2 and ENL”, the Apoptosis (Molm-13 cells [5]; 5 µM, 5-day incubation) was “did not cause significant apoptosis” and the Apoptosis (Molm-13 cells [5]; 10 µM, 5 days) was 44.2%. It also gave an Apoptosis (Molm-13 cells [5]; 15 µM, 5 days) of 73.6% and an Apoptosis (Molm-13 cells [5]; short-term 2- or 3-day incubation) of less than 5%.
